Structures can show the parent of a compound that is named as a salt.
What follows are compounds tested against GSK-3β (Homo sapiens, UniProt P49841) (assay: GSK3 kinase scintillation proximity assay (phosphorylation of biotinylated glycogen synthase peptide)). Settings: 20 nM kinase, 2.5 uM ATP, 2.8 uM peptide substrate, 40 minutes at room temperature; pIC50 = -log IC50 in Molar.
Sequence of GSK-3β (P49841 whole entry, species assumed): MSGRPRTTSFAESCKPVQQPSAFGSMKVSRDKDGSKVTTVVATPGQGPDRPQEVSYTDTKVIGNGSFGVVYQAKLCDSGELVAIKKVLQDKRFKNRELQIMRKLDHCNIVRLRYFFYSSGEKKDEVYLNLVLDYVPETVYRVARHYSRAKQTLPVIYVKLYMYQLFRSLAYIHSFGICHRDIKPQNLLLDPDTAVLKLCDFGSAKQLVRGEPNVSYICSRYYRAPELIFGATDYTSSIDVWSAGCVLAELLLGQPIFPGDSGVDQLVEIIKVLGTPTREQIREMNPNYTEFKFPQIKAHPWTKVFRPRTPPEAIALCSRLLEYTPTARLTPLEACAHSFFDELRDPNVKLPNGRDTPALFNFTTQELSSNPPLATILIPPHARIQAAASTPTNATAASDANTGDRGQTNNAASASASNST
Type: biochemical
Excerpt: The phosphorylated biotinylated peptide is then captured onto streptavidin coated scintillation proximity assay (SPA) beads from Amersham Technology, where the signal from the ^33P is amplified via the scintillant contained in the beads.
GSK-3β is commercially available or may be cloned and expressed in E coli using standard techniques to produce soluble, active protein. The production of active protein involves purification in two steps using Metal Chelate and Ion Exchange Chromatography. Protein eluting from Ion Exchange provides >90% pure product that may then be concentrated for use in high throughput screening.
The kinase was assayed at a concentration of 20 nM final in 100 mM HEPES, pH 7.2 containing 10 mM magnesium chloride, 0.1 mg/mL bovine serum albumin, 1 mM dithiothreitol, 0.3 mg/mL heparin, 2.8 uM peptide substrate, 2.5 uM ATP, and 0.2 uCi/well γ^33P]-ATP. After 40 minutes incubation at room temperature, the reaction was stopped by addition of 100 mM EDTA and […] in 100 mM HEPES, pH7.2 followed by an additional solution of diluted Streptavidin coated SPA beads in PBS, pH 7.2 to give a final concentration of 0.25 mg of beads per assay well in a 96-well microtiter plate.
10 mM stock solutions of the compounds of the invention in 100% DMSO are generated as a first step in the screening process. The second step involves the creation of dose response plates where these compounds are diluted 10-fold in 100% DMSO to 1 mM concentrations and subsequently serially diluted 3-fold in 100% DMSO across the plate by automated liquid handling such that the final top concentration of inhibitor is 0.033 mM in the 30 uL kinase assay. The third step involves the creation of the assay plates. This is achieved by transferring 1 uL of the compounds to assay plates by automated liquid handling. The fourth step is to perform the assay as described and count the resulting plates in the Packard TopCount NXT microplate scintillation and luminescence counter.
The final step is data acquisition and analysis where IC50 values are generated for each compound by normalizing curve data to the equation 100*(U1−C2)/(C1−C2) (where U1 is the cpm value, C2 is the background, and C1 is the maximum number of counts), then fitting the normalized data to the equation y=Vmax*(1−(x/(K+x))). The IC50 values were converted to pIC50 values, i.e., −log IC50 in Molar concentration. The data is expressed below in Table 1.
With `COc1cccc(-n2ncc3c(N/N=C/c4ccc(C(=O)NCCCN(C)C)cc4)ncnc32)n1` [Example 11, N-[3-(Dimethylamino)propyl]-4-((E)-{[1-(6-methoxypyridin-2-yl)-1H-pyrazolo[3,4-a]pyrimidin-4-yl]hydrazono}methyl)benzamide] the IC50 was under 100 nM.
`COc1cccc(-n2ncc3c(N/N=C/c4ccnc(Cl)c4)ncnc32)n1` [Example 4, 2-Chloroisonicotin aldehyde [1-(6-methoxypyridin-2-yl)-1H-pyrazolo[3,4-d]pyrimidin-4-yl]hydrazone] showed an IC50 of 100 to 1000 nM.
With `COc1cccc(-n2ncc3c(N/N=C/c4ccc(N(C)C)nc4)ncnc32)n1` [Example 3, 6-(Dimethylamino)nicotinaldehyde [1-(6-methoxypyridin-2-yl)-1H-pyrazolo[3,4-d]pyrimidin-4-yl]hydrazone] the IC50 was 100 to 1000 nM.
`COc1cccc(-n2ncc3c(N/N=C/c4ccc(S(=O)(=O)NCCN5CCOCC5)cc4)ncnc32)n1` [Example 7, 4-((E)-{[1-(6-methoxypyridin-2-yl)-1H-pyrazolo[3,4-]pyrimidin-4-yl]hydrazono}methyl)-N-(2-morpholin-4-ylethyl)benzenesulfonamide] showed an IC50 of under 100 nM.
With `C(=N\Nc1ncnc2c1cnn2-c1ccccn1)/c1ccncc1` [Example 14, Isonicotinaldehyde (1-pyridin-2-yl-1H-pyrazolo[3,4-d]pyrimidin-4-yl)hydrazone] the IC50 was 1000 to 10000 nM.
`CC(C)(C)OC(=O)N1CCC(/C=N/Nc2ncnc3c2cnn3-c2ccccn2)CC1` [Example 15, tert-Butyl 4-{(E)-[(1-pyridin-2-yl-1H-pyrazolo[3,4-d]pyrimidin-4-yl)hydrazono]methyl}piperidine-1-carboxylate] showed an IC50 of 1000 to 10000 nM.
`CS(=O)(=O)c1ccc(/C=N/Nc2ncnc3c2cnn3-c2cccc3[nH]cnc23)cc1` [Example 30, 4-(Methylsulfonyl)benzaldehyde [1-(1H-benzimidazol-4-yl)-1H-pyrazolo[3,4-d]pyrimidin-4-yl]hydrazone] gave an IC50 of under 100 nM.
With `C(=N\Nc1ncnc2c1cnn2-c1ccccn1)/c1cccnc1` [Example 13, Nicotinaldehyde (1-pyridin-2-yl-1H-pyrazolo[3,4-d]pyrimidin-4-yl)hydrazone] the IC50 was 100 to 1000 nM.
`CS(=O)(=O)CCNC(=O)c1ccc(/C=N/Nc2ncnc3c2cnn3-c2ccccn2)cc1` [Example 22, N-[2-(Methylsulfonyl)ethyl]-4-{(E)-[(1-pyridin-2-yl-1H-pyrazolo[3,4-d]pyrimidin-4-yl)hydrazono]methyl}benzamide] was tested, and the IC50 was 100 to 1000 nM.
With `COc1cccc(-n2ncc3c(N/N=C/c4cccnc4)ncnc32)n1` [Example 2, Nicotinaldehyde [1-(6-methoxypyridin-2-yl)-1H-pyrazolo[3,4-d]pyrimidin-4-yl]hydrazone] the IC50 was under 100 nM.
For `COc1cccc(-n2ncc3c(N/N=C/c4ccc(C(=O)NCCN(C)C)cc4)ncnc32)n1` [Example 10, N[2-(Dimethylamino)ethyl]-4-((E)-{[1-(6-methoxypyridin-2-yl)-1H-pyrazolo[3,4-d]pyrimidin-4-yl]hydrazono}methyl)benzamide], the IC50 was under 100 nM.
Work on `COc1cccc(-n2ncc3c(N/N=C/c4ccc(C(=O)NCCCN5CCCC5)cc4)ncnc32)n1` [Example 12, 4-((E)-{[1-(6-methoxypyridin-2-yl)-1H-pyrazolo[3,4-d]pyrimidin-4-yl]hydrazono}methyl)-N-(3-pyrrolidin-1-ylpropyl)benzamide] yielded an IC50 of under 100 nM.
For `CN(C)CCNS(=O)(=O)c1ccc(/C=N/Nc2ncnc3c2cnn3-c2nccs2)cc1` [Example 25, N-[2-(Dimethylamino)ethyl]-4-((E)-{[1-(1,3-thiazol-2-yl)-1H-pyrazolo[3,4-a]pyrimidin-4-yl]hydrazonol}methyl)benzenesulfonamide], the IC50 was under 100 nM.
`C(=NNc1ncnc2c1cnn2-c1cccc2[nH]cnc12)c1ccncc1` [Example 28, Isonicotinaldehyde [1-(1H-benzimidazol-4-yl)-1H-pyrazolo[3,4-d]pyrimidin-4-yl]hydrazone] gave an IC50 of under 100 nM.
`CN(C)CCNC(=O)c1ccc(/C=N/Nc2ncnc3c2cnn3-c2ccccn2)cc1` [Example 21, N-[2-(Dimethylamino)ethyl]-4-{(E)-[(1-pyridin-2-yl-1H-pyrazolo[3,4-d]pyrimidin-4-yl)hydrazono]methyl}benzamide hydrochloride] was tested, and the IC50 was 100 to 1000 nM.
Work on `Fc1ccc(/C=N/Nc2ncnc3c2cnn3-c2cccc3[nH]cnc23)cc1` [Example 29, 4-Fluorobenzaldehyde [1-(1H-benzimidazol-4-yl)-1H-pyrazolo[3,4-d]pyrimidin-4-yl]hydrazone] yielded an IC50 of under 100 nM.
`COc1cccc(-n2ncc3c(N/N=C/c4ccc(Cl)nc4)ncnc32)n1` [Example 5, 6-Chloronicotinaldehyde [1-(6-methoxypyridin-2-yl)-1H-pyrazolo[3,4-d]pyrimidin-4-yl]hydrazone] showed an IC50 of under 100 nM.
`C(=N\Nc1ncnc2c1cnn2-c1ccncc1)/c1ccncc1` [Example 26, Isonicotinaldehyde (1-pyridin-4-yl-1H-pyrazolo[3,4-d]pyrimidin-4-yl)hydrazone] was tested, and the IC50 was under 100 nM.
`COc1cccc(-n2ncc3c(N/N=C/c4ccc(C(=O)NCCS(C)(=O)=O)cc4)ncnc32)n1` [Example 9, 4-((E)-{[1-(6-methoxypyridin-2-yl)-1H-pyrazolo[3,4-d]pyrimidin-4-yl]hydrazono}methyl)-N-[2-(methylsulfonyl)ethyl]benzamide] showed an IC50 of under 100 nM.
For `O=C(O)c1ccc(/C=N/Nc2ncnc3c2cnn3-c2cccc3[nH]cnc23)cc1` [Example 31, 4-((E)-{[1-(1H-benzimidazol-4-yl)-1H-pyrazolo[3,4-d]pyrimidin-4-yl]hydrazono}methyl)benzoic acid], the IC50 was under 100 nM.
`C(=NNc1ncnc2c1cnn2-c1nccs1)c1cccnc1` [Example 23, Nicotinaldehyde [1-(1,3-thiazol-2-yl)-1H-pyrazolo[3,4-d]pyrimidin-4-yl]hydrazone] was tested, and the IC50 was 100 to 1000 nM.
For `CN(C)CCCNC(=O)c1ccc(/C=N/Nc2ncnc3c2cnn3-c2cccc3[nH]cnc23)cc1` [Example 32, 4-((E)-{[1-(1H-benzimidazol-4-yl)-1H-pyrazolo[3,4-d]pyrimidin-4-yl]hydrazono}methyl)-N-[3-(dimethylamino)propyl]benzamide], the IC50 was under 100 nM.
`C(=NNc1ncnc2c1cnn2-c1nccs1)c1ccncc1` [Example 24, Isonicotinaldehyde [1-(1,3-thiazol-2-yl)-1H-pyrazolo[3,4-d]pyrimidin-4-yl]hydrazone] showed an IC50 of under 100 nM.
`Nc1ccc(/C=N/Nc2ncnc3c2cnn3-c2ccccn2)cn1` [Example 17, 6-Aminonicotinaldehyde (1-pyridin-2-yl-1H-pyrazolo[3,4-d]pyrimidin-4-yl)hydrazone trifluoroacetate] was tested, and the IC50 was 1000 to 10000 nM.
Compound `COc1cccc(-n2ncc3c(N/N=C/c4ccncc4)ncnc32)n1` [Example 1, Isonicotinaldehyde [1-(6-methoxypyridin-2-yl)-1H-pyrazolo[3,4-d]pyrimidin-4-yl]hydrazone] has an IC50 of under 100 nM.
For `O=C(O)c1ccc(/C=N/Nc2ncnc3c2cnn3-c2ccccn2)cc1` [Example 20, 4-{(E)-[(1-pyridin-2-yl-1H-pyrazolo[3,4-d]pyrimidin-4-yl)hydrazono]methyl}benzoic acid], the IC50 was 1000 to 10000 nM.
`COc1cccc(-n2ncc3c(N/N=C/c4ccc(S(=O)(=O)NCCN(C)C)cc4)ncnc32)n1` [Example 6, N-[2-(Dimethylamino)ethyl]-4-((E)-{[1-(6-methoxypyridin-2-yl)-1H-pyrazolo[3,4-d]pyrimidin-4-yl]hydrazono}methyl)benzenesulfonamide] gave an IC50 of under 100 nM.
Work on `COc1cccc(-n2ncc3c(N/N=C/c4ccc(C(=O)O)cc4)ncnc32)n1` [Example 8] yielded an IC50 of 100 to 1000 nM.
With `Fc1ccc(/C=N/Nc2ncnc3c2cnn3-c2cccnc2)cc1` [Example 33, 4-Fluorobenzaldehyde (1-pyridin-3-yl-1H-pyrazolo[3,4-d]pyrimidin-4-yl)hydrazone] the IC50 was under 100 nM.
`CN(C)c1ccc(/C=N/Nc2ncnc3c2cnn3-c2ccccn2)cn1` [Example 18, 6-(Dimethylamino)nicotinaldehyde (1-pyridin-2-yl-1H-pyrazolo[3,4-d]pyrimidin-4-yl)hydrazone] was tested, and the IC50 was 1000 to 10000 nM.
`CN(C)CCNS(=O)(=O)c1ccc(/C=N/Nc2ncnc3c2cnn3-c2ccccn2)cc1` [Example 19, N-[2-(Dimethylamino)ethyl]-4-{(E)-[(1-pyridin-2-yl-1H-pyrazolo[3,4-d]pyrimidin-4-yl)hydrazono]methyl}benzenesulfonamide] showed an IC50 of 100 to 1000 nM.
